Among the data in patent US10543212B2, “Substituted amines for treating cardiac diseases” (Cardurion Pharmaceuticals, LLC, priority 2017, dated 2020) are IC50 values, retold here.

The assay addresses T1, Full-length, GST-tagged, human CaMKIIδ (Homo sapiens, UniProt Q13557).
T1 construct: Full-Length, Glutathione-S-Transferase(GST)-Tagged, Human CaMKIIδ was purchased from Carna Biosciences; purchased Carna Biosciences 02-111
As to the kind of experiment: CaMKIIδ binding assay (TR-FRET with BODIPY-labeled probe ligand). The method, boiled down:
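TR-FRET probe-displacement binding: 0.5 nM GST-CaMKIIδ with 10 μg/mL calmodulin, 1 mM CaCl2, 0.21 nM Tb-anti-GST Ab and 300 nM BODIPY probe in HEPES pH 7.6 buffer. Eight-point 4-fold dilutions, 1 hr at room temperature. IC50 from logistic fit; 100% inhibition defined by 3 μM parent compound.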

Setting [1] is: CaMKIIδ binding assay, activity class per Table 2.
Where [2] appears, read: Table 2, CaMKIIδ binding assay, activity given as class A/B/C.
Setting [3] is: CaMKIIδ binding assay, results of Table 2.
Where [4] appears, read: Table 2, activity class for CaMKIIδ.

T1 sequence (Q13557 1-478 isoform Q13557-12): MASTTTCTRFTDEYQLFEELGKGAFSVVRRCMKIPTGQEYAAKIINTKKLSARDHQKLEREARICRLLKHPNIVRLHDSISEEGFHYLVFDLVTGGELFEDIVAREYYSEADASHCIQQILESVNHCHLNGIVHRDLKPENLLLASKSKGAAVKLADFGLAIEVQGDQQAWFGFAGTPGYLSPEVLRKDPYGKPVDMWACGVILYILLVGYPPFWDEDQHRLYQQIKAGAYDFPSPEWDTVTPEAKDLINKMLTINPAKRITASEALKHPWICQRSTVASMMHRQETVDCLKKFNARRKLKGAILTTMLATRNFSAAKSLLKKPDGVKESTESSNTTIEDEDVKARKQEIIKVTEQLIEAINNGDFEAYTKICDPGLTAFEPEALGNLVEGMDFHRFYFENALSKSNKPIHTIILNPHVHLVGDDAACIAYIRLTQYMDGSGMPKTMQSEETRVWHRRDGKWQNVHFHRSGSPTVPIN

Take `C[C@@H](Cn1cnnn1)Oc1cc(-c2cnc(Nc3cn(C4(CO)CCC4)nc3OCC(F)(F)F)nc2)ccc1Cl` [Example 914, (S)-(1-(4-((5-(3-((1-(1H-tetrazol-1-yl)propan-2-yl)oxy)-4-chlorophenyl)pyrimidin-2-yl)amino)-3-(2,2,2-trifluoroethoxy)-1H-pyrazol-1-yl)cyclobutyl)methanol]: the IC50 under setting [1] is under 0.01 µM. For `C[C@@H](Cn1cnnn1)Oc1cc(-c2cnc(Nc3cn(C4CCN(C(=O)OC(C)(C)C)CC4)nc3C(F)F)nc2)ccc1Cl` [Example 766, tert-butyl (S)-4-(4-((5-(3-((1-(1H-tetrazol-1-yl)propan-2-yl)oxy)-4-chlorophenyl)pyrimidin-2-yl)amino)-3-(difluoromethyl)-1H-pyrazol-1-yl)piperidine-1-carboxylate], under setting [2], the IC50 was in the range of 0.01 to 0.1 µM.

On to `COc1cc2c(cc1Nc1ncc(-c3ccc(Cl)c(O[C@@H](C)Cn4cnnn4)c3)cn1)CN(C1COC1)CCC2` [Example 467, (S)-N-(5-(3-((1-(1H-tetrazol-1-yl)propan-2-yl)oxy)-4-chlorophenyl)pyrimidin-2-yl)-7-methoxy-2-(oxetan-3-yl)-2,3,4,5-tetrahydro-1H-benzo[c]azepin-8-amine], for which the IC50 under setting [3] lay within 0.01 to 0.1 µM.

In turn, `C[C@@H](Cn1cnnn1)Oc1cc(-c2cnc(Nc3ccc4c(c3)CCN4C(=O)OC(C)(C)C)nc2)ccc1Cl` [Example 450, tert-butyl (S)-5-((5-(3-((1-(1H-tetrazol-1-yl)propan-2-yl)oxy)-4-chlorophenyl)pyrimidin-2-yl)amino)indoline-1-carboxylate] displayed an IC50 under setting [3] of at least 0.1 µM.

`C[C@@H](Cn1cnnn1)Oc1cc(-c2cnc(Nc3cn(CCNC(N)=O)nc3C(F)(F)F)nc2)ccc1Cl` [Example 887, (S)-1-(2-(4-((5-(3-((1-(1H-tetrazol-1-yl)propan-2-yl)oxy)-4-chlorophenyl)pyrimidin-2-yl)amino)-3-(trifluoromethyl)-1H-pyrazol-1-yl)ethyl)urea] came in with an IC50 under setting [1] of 0.01 to 0.1 µM.

With `C[C@@H](Cn1cnnn1)Oc1cc(-c2cnc(Nc3cn(C4CCNCC4)nc3OCC(F)F)nc2)ccc1Cl` [Example 791, (S)-5-(3-((1-(1H-tetrazol-1-yl)propan-2-yl)oxy)-4-chlorophenyl)-N-(3-(2,2-difluoroethoxy)-1-(piperidin-4-yl)-1H-pyrazol-4-yl)pyrimidin-2-amine], under setting [2], the IC50 is under 0.01 µM. As for `COCCN1CCc2cc(OC)c(Nc3ncc(-c4ccc(Cl)c(O[C@@H](C)Cn5cnnn5)c4)cn3)cc2C1` [Example 518, (S)-N-(5-(3-((1-(1H-tetrazol-1-yl)propan-2-yl)oxy)-4-chlorophenyl)pyrimidin-2-yl)-6-methoxy-2-(2-methoxyethyl)-1,2,3,4-tetrahydroisoquinolin-7-amine], the IC50 under setting [3] is under 0.01 µM. Take `COc1ccc(C(=O)N2CCCN(C3COC3)CC2)cc1Nc1ncc(-c2ccc(Cl)c(O[C@@H](C)Cn3cnnn3)c2)cn1` [Example 573, (S)-(3-((5-(3-((1-(1H-tetrazol-1-yl)propan-2-yl)oxy)-4-chlorophenyl)pyrimidin-2-yl)amino)-4-methoxyphenyl) (4-(oxetan-3-yl)-1,4-diazepan-1-yl)methanone]: the IC50 under setting [3] was under 0.01 µM.

In turn, `COc1nc(N2CCN(CC(F)(F)F)CC2)ccc1Nc1ncc(-c2ccc(Cl)c(O[C@@H](C)Cn3cnnn3)c2)cn1` [Example 637, (S)-5-(3-((1-(1H-tetrazol-1-yl)propan-2-yl)oxy)-4-chlorophenyl)-N-(2-methoxy-6-(4-(2,2,2-trifluoroethyl)piperazin-1-yl)pyridin-3-yl)pyrimidin-2-amine] registered an IC50 under setting [4] of at least 0.1 µM. On to `C[C@@H](Cn1cnnn1)Oc1cc(-c2cnc(Nc3ccc(N4CCC(N5CCOCC5)CC4)cc3C(N)=O)nc2)ccc1Cl` [Example 444, (S)-2-((5-(3-((1-(1H-tetrazol-1-yl)propan-2-yl)oxy)-4-chlorophenyl)pyrimidin-2-yl)amino)-5-(4-morpholinopiperidin-1-yl)benzamide], for which the IC50 under setting [3] was at least 0.1 µM. For the compound `C[C@@H](Cn1cnnn1)Oc1cc(-c2cnc(Nc3cn([C@H]4CC[C@@H](N5CC(C)(O)C5)CC4)nc3OCC(F)(F)F)nc2)ccc1Cl` [Example 801, 1-(cis-4-(4-((5-(3-(((S)-1-(1H-tetrazol-1-yl)propan-2-yl)oxy)-4-chlorophenyl)pyrimidin-2-yl)amino)-3-(2,2,2-trifluoroethoxy)-1H-pyrazol-1-yl)cyclohexyl)-3-methylazetidin-3-ol], the IC50 under setting [2] is under 0.01 µM. Compound `C[C@@H](Cn1cnnn1)Oc1cc(-c2cnc(Nc3cn([C@@H]4C[C@H]5CC[C@@H](C4)N5)nc3C(F)(F)F)nc2)ccc1Cl` [Example 702, 5-(3-(((S)-1-(1H-tetrazol-1-yl)propan-2-yl)oxy)-4-chlorophenyl)-N-(1-((1R,3s,5S)-8-azabicyclo[3.2.1]octan-3-yl)-3-(trifluoromethyl)-1H-pyrazol-4-yl)pyrimidin-2-amine] yielded an IC50 under setting [4] of under 0.01 µM. Regarding `C[C@@H](Cn1cnnn1)Oc1cc(-c2cnc(Nc3cn(C4CC5(C4)CN(CCC(F)(F)F)C5)nc3OCC(F)(F)F)nc2)ccc1Cl` [Example 998, (S)-5-(3-((1-(1H-tetrazol-1-yl)propan-2-yl)oxy)-4-chlorophenyl)-N-(3-(2,2,2-trifluoroethoxy)-1-(2-(3,3,3-trifluoropropyl)-2-azaspiro[3.3]heptan-6-yl)-1H-pyrazol-4-yl)pyrimidin-2-amine], the IC50 under setting [1] was under 0.01 µM. Take `C[C@@H](Cn1cccn1)Oc1cc(-c2cnc(Nc3cn([C@H]4CC[C@@H](N5CCOCC5)CC4)nc3C(F)(F)F)nc2)ccc1C#N` [Example 785, 2-(((S)-1-(1H-pyrazol-1-yl)propan-2-yl)oxy)-4-(2-((1-(cis-4-morpholinocyclohexyl)-3-(trifluoromethyl)-1H-pyrazol-4-yl)amino)pyrimidin-5-yl)benzonitrile]: under setting [2], the IC50 lay in the range of 0.01 to 0.1 µM. `Cc1ncc(N2CC(CN3CCOCC3)C2)cc1Nc1ncc(-c2ccc(Cl)c(O[C@@H](C)Cn3cnnn3)c2)cn1` [Example 610, (S)-5-(3-((1-(1H-tetrazol-1-yl)propan-2-yl)oxy)-4-chlorophenyl)-N-(2-methyl-5-(3-(morpholinomethyl)azetidin-1-yl)pyridin-3-yl)pyrimidin-2-amine] yielded an IC50 under setting [4] of under 0.01 µM.

On to `COc1cc(N2CCN(C3CCOCC3)CC2)cnc1Nc1ncc(-c2ccc(Cl)c(O[C@@H](C)Cn3cnnn3)c2)cn1` [Example 647, (S)-5-(3-((1-(1H-tetrazol-1-yl)propan-2-yl)oxy)-4-chlorophenyl)-N-(3-methoxy-5-(4-(tetrahydro-2H-pyran-4-yl)piperazin-1-yl)pyridin-2-yl)pyrimidin-2-amine], for which the IC50 under setting [4] was in the range of 0.01 to 0.1 µM. `Cc1cc(Nc2ncc(-c3ccc(Cl)c(O[C@@H](C)Cn4cnnn4)c3)cn2)n(CCC#N)n1` [Example 746, (S)-3-(5-((5-(3-((1-(1H-tetrazol-1-yl)propan-2-yl)oxy)-4-chlorophenyl)pyrimidin-2-yl)amino)-3-methyl-1H-pyrazol-1-yl)propanenitrile] gave an IC50 under setting [2] of at least 0.1 µM. In turn, `C[C@@H](Cn1cnnn1)Oc1cc(-c2cnc(Nc3cn(C4CC5(C4)CN(C4(C)CCOCC4)C5)nc3OCC(F)(F)F)nc2)ccc1Cl` [Example 937, (S)-5-(3-((1-(1H-tetrazol-1-yl)propan-2-yl)oxy)-4-chlorophenyl)-N-(1-(2-(4-methyltetrahydro-2H-pyran-4-yl)-2-azaspiro[3.3]heptan-6-yl)-3-(2,2,2-trifluoroethoxy)-1H-pyrazol-4-yl)pyrimidin-2-amine] gave an IC50 under setting [1] of under 0.01 µM. For `C[C@@H](Cn1cnnn1)Oc1cc(-c2cnc(Nc3cn(C4CCNC4)nc3C(F)(F)F)nc2)ccc1Cl` (stereo partly drawn) [Example 618, 5-(3-(((S)-1-(1H-tetrazol-1-yl)propan-2-yl)oxy)-4-chlorophenyl)-N-(1-(pyrrolidin-3-yl)-3-(trifluoromethyl)-1H-pyrazol-4-yl)pyrimidin-2-amine], the IC50 under setting [4] is under 0.01 µM. `C[C@@H](Cn1cnnn1)Oc1cc(-c2cnc(Nc3cn(C4CCN(Cc5ccccc5)CC4)nc3C(F)(F)F)nc2)ccc1Cl` [Example 548, (S)-5-(3-((1-(1H-tetrazol-1-yl)propan-2-yl)oxy)-4-chlorophenyl)-N-(1-(1-benzylpiperidin-4-yl)-3-(trifluoromethyl)-1H-pyrazol-4-yl)pyrimidin-2-amine]: the IC50 under setting [3] is under 0.01 µM.

Consider `CC(C)c1nn(C2CC3(C2)CN(C2(C)CCOCC2)C3)cc1Nc1ncc(-c2ccc(Cl)c(O[C@@H](C)Cn3cnnn3)c2)cn1` [Example 960, (S)-5-(3-((1-(1H-tetrazol-1-yl)propan-2-yl)oxy)-4-chlorophenyl)-N-(3-isopropyl-1-(2-(4-methyltetrahydro-2H-pyran-4-yl)-2-azaspiro[3.3]heptan-6-yl)-1H-pyrazol-4-yl)pyrimidin-2-amine], for which the IC50 under setting [1] is under 0.01 µM. The compound `C[C@@H](Cn1cnnn1)Oc1cc(-c2cnc(Nc3cn(-c4ccc(=O)[nH]c4)nc3OCC(F)(F)F)nc2)ccc1Cl` [Example 902, (S)-5-(4-((5-(3-((1-(1H-tetrazol-1-yl)propan-2-yl)oxy)-4-chlorophenyl)pyrimidin-2-yl)amino)-3-(2,2,2-trifluoroethoxy)-1H-pyrazol-1-yl)pyridin-2(1H)-one] showed an IC50 under setting [1] of under 0.01 µM.

Consider `COc1cc2c(cc1Nc1ncc(-c3ccc(C#N)c(O[C@@H](C)Cn4cnnn4)c3)cn1)N(C(=O)C(F)(F)F)CCC2` [Example 585, (S)-2-((1-(1H-tetrazol-1-yl)propan-2-yl)oxy)-4-(2-((6-methoxy-1-(2,2,2-trifluoroacetyl)-1,2,3,4-tetrahydroquinolin-7-yl)amino)pyrimidin-5-yl)benzonitrile], for which the 50% inhibitory concentration (IC50) under setting [4] was in the range of 0.01 to 0.1 µM. In the case of `C[C@@H](Cn1cnnn1)Oc1cc(-c2cnc(Nc3cn([C@@H]4CCNC[C@H]4O)nc3C(F)(F)F)nc2)ccc1Cl` (mixture of isomers) [Example 892, trans-4-(4-((5-(3-(((S)-1-(1H-tetrazol-1-yl)propan-2-yl)oxy)-4-chlorophenyl)pyrimidin-2-yl)amino)-3-(trifluoromethyl)-1H-pyrazol-1-yl)piperidin-3-ol], the IC50 under setting [1] was under 0.01 µM.

In general, IC50 refers to the concentration needed to halve the response being measured. A lower IC50 goes with greater potency.
